Columns and labels:
[1] = test system: PCPA-induced insomnia model of mice; assay: Number of autonomous activities of mice, PCPA-induced insomnia model; assay type: in vivo; conditions: for Number of autonomous activities, before administration: baseline after PCPA modeling; for Number of autonomous activities, before administration / Number of autonomous activities, after last administration: number in 5 min; for Number of autonomous activities, after last administration: half an hour after administration on the 7th day, PCPA insomnia mice
Procedure: (§1) The pharmacodynamic evaluation of N1-dihydrocaffeoyl-N10-caffeoylspermidine for improving sleep effect was performed in a mouse insomnia model induced by injection of para-chlorophenylalanine (PCPA). The sedative hypnotic effect of N1-dihydrocaffeoyl-N10-caffeoylspermidine in mice with insomnia were evaluated by behavioral evaluation methods, such as recording of the number of autonomous activities, recording of body weight and inducing sleep experiments in mice with pentobarbital sodium. Brain tissues was obtained to determine the levels of neurotransmitters 5-HT, 5-HIAA, GABA and Glu, and to explore the possible mechanism of the sleep improving effect of N1-dihydrocaffeoyl-N10-caffeoylspermidine.
(§2) Healthy SPF grade male ICR mice (18-22 g) were obtained, which were provided by the animal experimental center of Ningxia Medical University (laboratory animal license number SCXK (Ningxia Medical University) 2020-0001). The mice were adaptively housed in a standard SPF grade laboratory with the same animal housing conditions for each group: ambient temperature (25° C.), relative humidity (50%-60%). The mice were free access to food and water.
(§3) After adaptive feeding, for 2 days of continuous modeling, the normal control group was given normal saline (0.1 mL/10 g/d), and the remaining groups received an intraperitoneal injection of PCPA suspension (400 mg/kg/d).
(§4) The mice in each group were administered sequentially from 8:00 am to 12:00 am daily for 7 days.
(1) Number of autonomous activities: after grouping as above, the number of autonomous activities of mice in 5 min was recorded after successful modeling and half an hour after administration on the 7th day, respectively. Mice were acclimatized into the apparatus for 3 min before each recording.

[2] = Body weight of mice, PCPA-induced insomnia model; assay type: in vivo; conditions: for Body weight, after molding: after PCPA modeling, before administration; for Body weight, before molding: baseline before PCPA modeling; for Body weight, 3rd day of administration / Body weight, 7th day of administration: PCPA insomnia mice
Procedure: as §1, §2, §3, §4
(2) Body weight: the body weight of mice in each group was recorded before modeling, after modeling, on the 3rd, 7th day of drug administration, respectively.

[3] = test system: PCPA-induced insomnia model of mice; assay: Righting reflex experiment with pentobarbital sodium: sleep latency and sleep duration; assay type: in vivo; conditions: for Sleep duration / Sleep latency: pentobarbital sodium 50 mg/kg i.p. one hour after administration on the 7th day, PCPA insomnia mice
Procedure: as §1, §2, §3, §4
(3) Righting reflex experiment to determine sleep duration: one hour after administration on the 7th day, mice in each group were intraperitoneally injected with pentobarbital sodium suspension (50 mg/kg), and the sleep latency and sleep duration of mice were recorded. (Sleep latency was recorded from the end of the intraperitoneal injection until the disappearance of the mouse righting reflex for more than 1 min; time from falling asleep to the recovery of the mouse righting reflex was recorded as sleep duration.)

5-HT = 5-HT level in brain tissue by ELISA; assay type: in vivo, mice; conditions: for 5-HT: brain tissue, PCPA insomnia mice
Procedure: as §1, §3, §4
(§5) After administration for 7 days, the mice were sacrificed by cervical dislocation, the brains were removed by decapitation on an ice table, ground evenly with a tissue homogenizer, and normal saline was added to make 10% brain tissue homogenate. The homogenate was centrifuged at 3000 r/min for 15 min at 4° C., then supernatants were collected, and levels of neurotransmitters 5-HT, 5-HIAA, Glu, and GABA were determined by ELISA.

5-HIAA = 5-HIAA level in brain tissue by ELISA; assay type: in vivo, mice; conditions: for 5-HIAA: brain tissue, PCPA insomnia mice
Procedure: as §1, §3, §4, §5

GABA = GABA level in brain tissue by ELISA; assay type: in vivo, mice; conditions: for GABA: brain tissue, PCPA insomnia mice
Procedure: as §1, §3, §4, §5

Glu = Glu level in brain tissue by ELISA; assay type: in vivo; conditions: PCPA insomnia mice
Procedure: as §1, §3, §4, §5

Glu/GABA = Glu/GABA ratio in brain tissue; assay type: in vivo, mice; conditions: for Glu/GABA: brain tissue, PCPA insomnia mice
Procedure: as §1, §3, §4, §5

[4] = groups at all doses (2, 40, 100 mg/kg/d), p<0.001
[5] = high dose 100 mg/kg/d for 7 days
[6] = medium dose 40 mg/kg/d for 7 days
[7] = groups at all doses (2, 40, 100 mg/kg/d), p<0.05
[8] = 10 mg/kg/d for 7 days, listed as positive drug
[9] = positive drug group (melatonin 10 mg/kg/d)
[10] = 10 mg/kg/d, listed as positive drug
[11] = 10 mg/kg/d for 7 days, 10 mg/kg/day
[12] = 10 mg/kg/d for 7 days, listed as positive drug, 10 mg/kg/day

For `O=C(/C=C/c1ccc(O)c(O)c1)NCCCNCCCCNC(=O)CCc1ccc(O)c(O)c1` [(E)-3-(3,4-dihydroxyphenyl)-N-(3-((4-(3,4-dihydroxyphenyl)propanamido)butyl)amino) propyl) acrylamide], the “Number of autonomous activities, before administration” value ([1]; high dose group (100 mg/kg/d)) was 248 ± 18.38, the “Number of autonomous activities, before administration” value ([1]; low dose group (2 mg/kg/d)) was 249 ± 22.30 and the “Number of autonomous activities, before administration” value ([1]; medium dose group (40 mg/kg/d)) was 246 ± 16.13. The “Number of autonomous activities after last administration compared with before administration” value [1, 4] was “significantly decreased”, the “Number of autonomous activities, after last administration” value [1, 5] was 167 ± 43.35 and the “Number of autonomous activities, after last administration” value ([1]; low dose 2 mg/kg/d for 7 days) was 172 ± 26.39. For the same compound, the “Number of autonomous activities, after last administration” value [1, 6] was 179 ± 17.43, the “Body weight, after molding” value ([2]; high dose group (100 mg/kg/d)) was 26.87 ± 2.71 g and the “Body weight, after molding” value ([2]; low dose group (2 mg/kg/d)) was 27.08 ± 3.74 g. The “Body weight, after molding” value ([2]; medium dose group (40 mg/kg/d)) was 27.33 ± 2.13 g, the “Body weight, before molding” value ([2]; high dose group (100 mg/kg/d)) was 26.18 ± 2.78 g and the “Body weight, before molding” value ([2]; low dose group (2 mg/kg/d)) was 26.74 ± 2.63 g. For the same compound, the “Body weight, before molding” value ([2]; medium dose group (40 mg/kg/d)) was 25.95 ± 1.99 g, the “Body weight on the 3rd day of administration compared with the model group” value [2, 4] was “increased significantly” and the “Body weight, 3rd day of administration” value ([2]; high dose 100 mg/kg/d) was 32.36 ± 2.39 g. For the same compound, the “Body weight, 3rd day of administration” value ([2]; low dose 2 mg/kg/d) was 32.02 ± 2.63 g, the “Body weight, 7th day of administration” value ([2]; low dose 2 mg/kg/d) was 31.83 ± 2.77 g and the “Body weight, 3rd day of administration” value ([2]; medium dose 40 mg/kg/d) was 31.34 ± 1.76 g. The “Body weight, 7th day of administration” value ([2]; medium dose 40 mg/kg/d) was 32.12 ± 1.44 g, the “Sleep duration compared with the model group” value [3, 7] was “increased significantly” and the Sleep duration [3, 5] was 17.5 ± 3.15 min. It also gave a Sleep duration ([3]; low dose 2 mg/kg/d for 7 days) of 16.6 ± 9.53 min, a Sleep duration [3, 6] of 19.9 ± 5.72 min and a Sleep latency [3, 6] of 298.50 ± 29.08 s. It also gave a 5-HT (5-HT; [5]) of 302.55 ± 17.00 ng/g, a 5-HT (5-HT; low dose 2 mg/kg/d for 7 days) of 271.37 ± 27.58 ng/g and a 5-HT (5-HT; [6]) of 283.18 ± 9.86 ng/g. The “5-HT content in brain tissues compared with the model group” value (5-HT; [7]) was “significantly increased”, the 5-HIAA (5-HIAA; [5]) was 36.61 ± 1.84 ng/g and the 5-HIAA (5-HIAA; low dose 2 mg/kg/d for 7 days) was 33.79 ± 2.51 ng/g. The 5-HIAA (5-HIAA; [6]) was 36.69 ± 2.00 ng/g, the “5-HIAA content in brain tissues compared with the model group” value (5-HIAA; groups at all doses (2, 40, 100 mg/kg/d), p<0.01) was “significantly increased” and the GABA (GABA; [5]) was 9.66 ± 1.30 nmol/L. For the same compound, the GABA (GABA; low dose 2 mg/kg/d for 7 days) was 8.53 ± 1.03 nmol/L, the GABA (GABA; [6]) was 9.69 ± 0.98 nmol/L and the “GABA content in brain tissues compared with the model group” value (GABA; groups at different doses (2, 40, 100 mg/kg/d), p<0.01) was “significantly increased”. It also gave a Glu (Glu; [5]) of 63.90 ± 2.88 μmol/gprot, a Glu (Glu; low dose 2 mg/kg/d for 7 days) of 64.84 ± 4.18 μmol/gprot and a Glu/GABA (Glu/GABA; [5]) of 7.66 ± 1.03. For the same compound, the Glu/GABA (Glu/GABA; low dose 2 mg/kg/d for 7 days) was 7.23 ± 1.90, the Glu/GABA (Glu/GABA; [6]) was 7.17 ± 1.20 and the “Glu/GABA values in brain tissues compared with the model group” value (Glu/GABA; groups at different doses (2, 40, 100 mg/kg/d), p<0.05) was “significantly reduced”.
With `COc1ccc2[nH]cc(CCNC(C)=O)c2c1` [Positive drug, melatonin, reference compound] the “Number of autonomous activities, after last administration” value ([1]; 10 mg/kg/d for 7 days) was 174 ± 20.81, the “Number of autonomous activities, after last administration” value [1, 8] was “significantly decreased” and the “Number of autonomous activities, before administration” value [1, 9] was 267 ± 15.15. For the same compound, the “Body weight, 3rd day of administration” value ([2]; 10 mg/kg/d) was 31.33 ± 4.21 g, the “Body weight, 7th day of administration” value ([2]; 10 mg/kg/d) was 33.67 ± 3.80 g and the “Body weight, 3rd day of administration” value [2, 10] was “increased significantly”. The “Body weight, 7th day of administration” value [2, 10] was “increased significantly”, the “Body weight, after molding” value [2, 9] was 26.26 ± 3.39 g and the “Body weight, before molding” value [2, 9] was 26.51 ± 2.23 g. The Sleep duration ([3]; 10 mg/kg/d for 7 days) was 26.4 ± 6.92 min, the Sleep latency ([3]; 10 mg/kg/d for 7 days) was 226.00 ± 18.42 s and the Sleep duration [3, 8] was “increased significantly”. For the same compound, the Sleep latency [3, 8] was “significantly reduced”, the 5-HIAA (5-HIAA; [11]) was 37.15 ± 1.56 ng/g and the 5-HIAA (5-HIAA; [12]) was “significantly increased”. For the same compound, the GABA (GABA; [11]) was 6.89 ± 1.11 nmol/L, the GABA (GABA; [12]) was 6.89 ± 1.11 nmol/L and the Glu (Glu; [11]) was 53.52 ± 7.23 μmol/gprot. The Glu (Glu; [12]) was 53.52±7.23 μmol/gprot, the Glu/GABA (Glu/GABA; [11]) was 8.51 ± 1.55 and the Glu/GABA (Glu/GABA; [12]) was “significantly reduced”.
